Data published in US10874686B2, “Anthranilyl-adenosinemonosulfamate analogs and uses thereof” (Memorial Sloan-Kettering Cancer Center, priority 2015, dated 2020).
Read-outs that look alike come from different tables or passages of the source.

Tests used:
MRC5 cells = assay: Cytotoxicity cell viability assay (CellTiter Glo), MRC5; type: cell-based; conditions: for IC50: Homo sapiens, MRC5, 48 hrs, luminescence; for toxicity in words, CellTiter Glo, MRC5: MRC5, luminescence readout, up to 1000 μM
Description: Promega Cell Titer-Glo utilizes the ATP dependent conversion of Luciferin to Oxyluciferin by a recombinant Luciferase in order to quantify the number of metabolically active cells in a sample. Quantification is possible because the number of RLU's detected is linearly proportional to the amount of ATP produced by metabolically active cells in culture at the time of lysis. Therefore, the relative cytotoxicity of each compound can be tested by quantifying the amount of ATP present in each microtiter well as compared to control groups. HepG2 and MRC5 were plated at a density of 1500 cells/25 al in well in the assay plate and allowed to settle overnight. 0.1 μL of compounds was then transferred from the source plate, into the cell assay plates. The cells were left to incubate with the compounds for 48 hrs, after which, 25 μL of Promega Cell Titer-Glo was added to each well, and allowed to incubate at room temperature with shaking for 20 minutes. RLU's for each well were then recorded on a BioTek Synergy NEO. DMSO was used as negative control

[1] = tested on: pyocyanin production by P. aeruginosa strain PA14; assay: Pyocyanin production by P. aeruginosa strain PA14; type: cell-based, Pseudomonas aeruginosa; conditions: 1 mM, 24 h
Protocol: Production of pyocyanin by P. aeruginosa strain PA14 was performed in triplicate in roundbottom glass tubes containing 5-mL cultures in LB medium. Tubes tilted at ˜60° angle were incubated at 37° C. in an orbital shaker at 200 rpm. Cultures were inoculated with 15-h preculture in LB in order to obtain a starting OD600 nm=0.05, with or without inhibitors added. At 24 h, 1 mL of each culture was thoroughly vortexed and centrifuged (12,000 g, 5 min). Next, 0.8 mL of the supernatant was removed and the OD690 nm was measured. The ratio of the absorbance compound-treated or MvfR^− cultures and untreated controls was calculated to provide the data in FIG. 7B.
The ability of these PqsA inhibitors to block production of the virulence factor pyocyanin was investigated. […] See, e.g., Starkey et al. (2014) PLoS Pathog. 10, e1004321; Storz et al. (2012) J. Am. Chem. Soc. 134, 16143; Thomann et al. (2016) ACS Chem. Biol. 11, 1279. Haloanthranilate substrate analogues have been reported to inhibit both quinolone and pyocyanin production but may impact multiple targets in this complex signaling network. This is indicative of the complex relationship between HHQ and PQS quinolone biosynthesis, induction of the MvfR regulon, and production of pyocyanin.

[2] = tested on: HHQ and PQS quinolone production in P. aeruginosa strain PA14; assay: Inhibition of HHQ and PQS quinolone production in P. aeruginosa strain PA14 (LC-MS/MS); type: cell-based, Pseudomonas aeruginosa; conditions: for inhibition at 1500 µM / inhibition at 1000 µM: Pseudomonas aeruginosa
Protocol: The production of PQS and HHQ by strain PA14 was performed in triplicate in 14-mL round bottom falcon tubes containing 3-mL cultures in LB medium. Tubes were incubated at 37° C. in an orbital shaker at 225 rpm. Cultures were inoculated with 15-hour culture in LB in order to obtain a starting OD600=0.05, with or without inhibitors added. For PQS and HHQ analysis, a 20 μl aliquot was taken at time points as indicated. Each sample was diluted with 180 μL of methanol containing the internal standard (100 μM of d^4-PQS or d^4-HHQ) and 2% acetic acid. The solution was then vertexed and centrifuged at 13,000 g for 5 minutes, and the supernatant was transferred to a 96-well plates for LC-MS/MS analysis. Bacterial growth was measured by recording OD600 at 20 h to provide the data in FIG. 7A.
Liquid chromatography tandem mass spectrometry (LC-MS/MS) was carried out on an Agilent Technologies 6410 triple quad LC-MS/MS system with autosampler in electrospray ionization (ESI) mode, with an Agilent Zorbax Eclipse XDB-C18 reverse phase column (50×4.6 mm, 5 μm) using a flow rate of 0.5 mL/minute and an isocratic mobile phase of 60% CH3CN in 0.1% aqueous formic acid over 5 minutes. Positive electrospray in MRM mode was employed to quantify PQS and HHQ, using the ion transitions HHQ 244 to 159, d^4-HHQ 248 to 163, PQS 260 to 175, and d^4-PQS 264 to 179; shown in Table E3.
PqsA inhibitors 1-5 were evaluated for their ability to inhibit HHQ and PQS quinolone production in P. aeruginosa strain PA14 (FIG. 6). HHQ and PQS concentrations were determined by LC-MS/MS quantitation relative to deuterated internal standards. 6-Fluoroanthranilate (6FABA), a substrate analogue reported previously to inhibit quinolone production at millimolar concentrations, was used as a positive control. Compounds were initially tested at 1.5 mM concentration, and HHQ and PQS were quantified at 8 and 20 hours, respectively. These time points were selected based on an initial time course study of quinolone production in the absence of inhibitors, with HHQ or PQS production peaking at these respective time points. […] This could be due to differences in cell penetration, stability, and/or target specificity. Finally, because inhibitors of the quinolone quorum sensing pathway should not impact bacterial growth, we confirmed that none of the six inhibitors above inhibited growth over 20 h (FIG. 7A). Encouraged by the ability of anthranilyl-AMS (1) and anthranilyl-AMSN (2) to inhibit HHQ and PQS quinolone production, the activity of these two inhibitors and 6FABA were investigated in greater detail. In untreated controls, HHQ and PQS production peaked at 8 and 20 hours, respectively. Previously reported time course studies have similarly shown that HHQ levels peak at 6-8 hours while PQS levels continue to rise. See, e.g., Deziel et al. (2004) Proc. Natl. Acad. Sci. U.S.A 101, 1339; Kesarwani et al. (2011) PLoS Pathog. 7, e1002192. All three inhibitors were able to decrease quinolone production in a dose- and time-dependent manner (FIG. 2A). […] Such a perturbation might still be sufficient to impact P. aeruginosa virulence in vivo. […] See, e.g., Lesic et al. (2007) PLoS Pathog. 3, e126.

[3] = PA14, 8 h, read-out: inhibition of HHQ production
[4] = PA14, 20 h, read-out: inhibition of PQS production
[5] = PA14, read-out: inhibition of HHQ production
[6] = PA14, read-out: inhibition of PQS production

For Nc1ccccc1C(=O)NS(=O)(=O)OC[C@H]1O[C@@H](n2cnc3c(N)ncnc32)[C@H](O)[C@@H]1O [anthranilyl-AMS, Anthranilyl-AMS], which IC50 (MRC5 cells) is on record?
The IC50 was 10.6 µM.

What about the “toxicity in words, CellTiter Glo, MRC5” value (MRC5 cells) of the same compound?
Its value is “significant toxicity in the tested range”.

What about the “inhibition of pyocyanin production” value [1] of the same compound?
The value was “neither inhibited pyocyanin production”.

What about the “dose- and time-dependent decrease of quinolone production, in words” value ([2]; FIG. 2A) of the same compound?
The value was “same trend of inhibition, albeit again with lower potency”.

What about the inhibition at 1500 µM [2, 3] of the same compound?
The inhibition at 1500 µM was 67%.

What about the inhibition at 1500 µM [2, 4] of the same compound?
The inhibition at 1500 µM was 77%.

What about the inhibition at 1000 µM [2, 5] of the same compound?
The inhibition at 1000 µM was 47%.

And the inhibition at 1000 µM [2, 6]?
Its inhibition at 1000 µM is 40%.

Which IC50 (MRC5 cells) does the source give for Nc1ccccc1C(=O)NS(=O)(=O)NC[C@H]1O[C@@H](n2cnc3c(N)ncnc32)[C@H](O)[C@@H]1O [anthranilyl-AMSN, Anthranilyl-AMSN] here?
The IC50 was 33.7 µM.

What about the “toxicity in words, CellTiter Glo, MRC5” value (MRC5 cells) of the same compound?
Its value is “significant toxicity in the tested range”.

And the “inhibition of pyocyanin production” value [1]?
The value was “neither inhibited pyocyanin production”.

What about the inhibition at 1500 µM [2, 3] of the same compound?
Its inhibition at 1500 µM is 90%.

What about the inhibition at 1500 µM [2, 4] of the same compound?
The inhibition at 1500 µM was 92%.

What about the inhibition at 1000 µM [2, 5] of the same compound?
Its inhibition at 1000 µM is 84%.

What about the inhibition at 1000 µM [2, 6] of the same compound?
The inhibition at 1000 µM was 84%.
